ChEMBL document CHEMBL1201862, “PubChem BioAssay data set” (2004)
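A five-concentration, 48-hour dose response in 96-well plates underlies each endpoint, interpolated linearly between surrounding concentrations. Here, GI50 denotes the concentration required for 50% inhibition of growth.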 Calls of active or inactive are those of the source. Cut-off read from the data, not from the text of the source: active = GI50 up to about 1.1 µM and inactive = higher.

Experiments:
Assay in all cases: DTP human tumour cell line panel, 48 h
DLD-1 = tested on: DLD-1
DMS-114 = tested on: DMS-114
DMS-273 = tested on: DMS-273
HOP-18 = tested on: HOP-18
KM-20L2 = tested on: KM-20L2
LXFL 529 = tested on: LXFL 529
M19-MEL = tested on: M19-MEL
RXF 631 = tested on: RXF 631
XF498 = tested on: XF498

SMILES	GI50 (DLD-1)	GI50 (DMS-114)	GI50 (DMS-273)	GI50 (HOP-18)	GI50 (KM-20L2)	GI50 (LXFL 529)	GI50 (M19-MEL)	GI50 (RXF 631)	GI50 (XF498)
O=[N+]([O-])c1cc(C(F)(F)F)cc([N+](=O)[O-])c1CCl	1.83 µM (inactive)	0.52 µM (active)	1.23 µM (inactive)	1.93 µM (inactive)	3.98 µM (inactive)	0.228 µM (active)	1.57 µM (inactive)	2.8 µM (inactive)	8.97 µM (inactive)
O=C(c1ccccc1)C(c1ccccc1)C1(O)C(=O)Nc2ccc([N+](=O)[O-])cc21 (stereo not drawn)	> 100 µM (inactive)	19.8 µM (inactive)			> 100 µM (inactive)	32.9 µM (inactive)	26.9 µM (inactive)	> 100 µM (inactive)	> 100 µM (inactive)
Cc1ccc(C)c(NC(=O)/C(=N\NC(N)=S)C(C#N)c2ccccc2)c1 (stereo not drawn)	> 100 µM (inactive)	> 100 µM (inactive)	> 100 µM (inactive)	> 100 µM (inactive)	> 100 µM (inactive)	> 100 µM (inactive)	> 100 µM (inactive)		> 100 µM (inactive)
COc1cc2c(c(OC)c1OC)-c1ccc(SC)c(=O)cc1[C@@H](NCc1ccccc1[N+](=O)[O-])CC2	0.00762 µM (active)	0.00796 µM (active)	0.004 µM (active)		0.00314 µM (active)	0.0128 µM (active)	0.004 µM (active)	0.01 µM (active)	0.0176 µM (active)
COc1cc(C(O)C(=O)c2nc3ccc([N+](=O)[O-])cc3nc2O)ccc1O (stereo not drawn)	> 100 µM (inactive)	66.8 µM (inactive)	83.9 µM (inactive)		69.7 µM (inactive)	35.8 µM (inactive)	> 100 µM (inactive)		> 100 µM (inactive)
COC(=O)/C=C(C)/C=C/c1c(C)c(C(C)=O)c(C)n1C	> 100 µM (inactive)		> 100 µM (inactive)	> 100 µM (inactive)	> 100 µM (inactive)	88.3 µM (inactive)	> 100 µM (inactive)	> 100 µM (inactive)	> 100 µM (inactive)
COC(OC)C(C)CC(=O)N(C)C (stereo not drawn)	> 100 µM (inactive)	> 100 µM (inactive)	> 100 µM (inactive)		> 100 µM (inactive)	> 100 µM (inactive)	> 100 µM (inactive)		> 100 µM (inactive)
O=C1OC(CC(=O)c2ccc(F)cc2)C(Cl)=C1Cl (stereo not drawn)	21.6 µM (inactive)	40.3 µM (inactive)		17.9 µM (inactive)		18 µM (inactive)	73.3 µM (inactive)		26.7 µM (inactive)
O=C(CC(C(=O)c1ccsc1)c1cccs1)c1cccs1 (stereo not drawn)	> 100 µM (inactive)	41.9 µM (inactive)	84.5 µM (inactive)		> 100 µM (inactive)	38.5 µM (inactive)	96.2 µM (inactive)		70.1 µM (inactive)
O=C(/C=C1\Nc2ccccc2C(=O)N1c1ccccc1Cl)c1ccccc1	> 100 µM (inactive)	86.3 µM (inactive)	> 100 µM (inactive)	> 100 µM (inactive)	> 100 µM (inactive)	> 100 µM (inactive)	> 100 µM (inactive)	> 100 µM (inactive)	
COc1cccc(NC(=O)C(=O)C2C=CCS2(=O)=O)c1 (stereo not drawn)	> 100 µM (inactive)	> 100 µM (inactive)		> 100 µM (inactive)	> 100 µM (inactive)	> 100 µM (inactive)	> 100 µM (inactive)		> 100 µM (inactive)
O=C(/C=C/c1ccc(OCCCOc2ccc(/C=C/C(=O)c3ccc(Cl)cc3)cc2)cc1)c1ccc(Cl)cc1	> 100 µM (inactive)	> 100 µM (inactive)	> 100 µM (inactive)	5.42 µM (inactive)	> 100 µM (inactive)	> 100 µM (inactive)	> 100 µM (inactive)		> 100 µM (inactive)
C=C1C=CC2(Br)OC3CC(C)(Cl)C(Br)CC13C2(C)C (stereo not drawn)	31.6 µM (inactive)	17.2 µM (inactive)	35.8 µM (inactive)		21.9 µM (inactive)	22.5 µM (inactive)	21.5 µM (inactive)	23 µM (inactive)	13.3 µM (inactive)
CC1CCC2(OC1)OC1CC3C4CCC5CC(O)CCC5(C)C4CC(=O)OC3(C)C1C2C (stereo not drawn)	> 100 µM (inactive)	> 100 µM (inactive)	> 100 µM (inactive)	> 100 µM (inactive)	> 100 µM (inactive)	> 100 µM (inactive)	> 100 µM (inactive)		
[O-][n+]1c2cc3c(cc2[n+]([O-])c2c(O)cccc21)CN(CCN1CCOCC1)C3		8.41 µM (inactive)	53.6 µM (inactive)	> 100 µM (inactive)	35.4 µM (inactive)	14.1 µM (inactive)	14.5 µM (inactive)	> 100 µM (inactive)	12.5 µM (inactive)
NC1=NC(=O)C(CC(=O)Nc2ccc(Cl)cc2Cl)S1 (stereo not drawn)	> 100 µM (inactive)		> 100 µM (inactive)		> 100 µM (inactive)	> 100 µM (inactive)	> 100 µM (inactive)		> 100 µM (inactive)
O=C(Nc1cc(Cl)c(Cl)cc1Cl)C(=O)C1C(=O)NC(=S)NC1=O	> 100 µM (inactive)	> 100 µM (inactive)	> 100 µM (inactive)	> 100 µM (inactive)	> 100 µM (inactive)	> 100 µM (inactive)	> 100 µM (inactive)	> 100 µM (inactive)	> 100 µM (inactive)
COC(=O)C12C3C4C1C1C2C3C41C(=O)N(C(C)C)C(C)C (stereo not drawn)	> 100 µM (inactive)	> 100 µM (inactive)	> 100 µM (inactive)		> 100 µM (inactive)	> 100 µM (inactive)	> 100 µM (inactive)		
CCNc1nc2c(=O)n(C)c(=O)n(C)c2s1	> 100 µM (inactive)			> 100 µM (inactive)	> 100 µM (inactive)	> 100 µM (inactive)	> 100 µM (inactive)		> 100 µM (inactive)
O=C1NC2(CCCCC2)C(=O)N1CCN(CCCl)CCCl [SPIROMUSTINE]	164 µM (inactive)	88.7 µM (inactive)	71.6 µM (inactive)	236 µM (inactive)	> 194 µM (inactive)		228 µM (inactive)		28.8 µM (inactive)
CCOC(=O)C1C=C2O[C@@H]3OC4(CCCCC4)O[C@@H]3C2C2C(=O)CCC(=O)[C@@]12C(=O)OC (stereo partly drawn)	> 100 µM (inactive)	> 100 µM (inactive)	> 100 µM (inactive)	> 100 µM (inactive)	> 100 µM (inactive)	> 100 µM (inactive)	> 100 µM (inactive)	> 100 µM (inactive)	> 100 µM (inactive)
CSC(=S)NNC(=O)c1ccncc1	13.5 µM (inactive)	14.3 µM (inactive)	21.7 µM (inactive)	25.2 µM (inactive)	32.7 µM (inactive)	15.7 µM (inactive)	19.1 µM (inactive)	30 µM (inactive)	21.9 µM (inactive)
CC1=CC(=O)N(c2c(C)cccc2Cl)C(C)N1 (stereo not drawn)	> 100 µM (inactive)	> 100 µM (inactive)	> 100 µM (inactive)	> 100 µM (inactive)	> 100 µM (inactive)	> 100 µM (inactive)	> 100 µM (inactive)	> 100 µM (inactive)	
COc1cccc(NC(=O)C(C)(C)C)c1C=O	51.9 µM (inactive)	34.6 µM (inactive)		91 µM (inactive)	43.8 µM (inactive)	33.7 µM (inactive)	59.3 µM (inactive)	81.3 µM (inactive)	7.38 µM (inactive)
[N-]=[N+]=N/C1=C/CCCCC(=O)C1	> 100 µM (inactive)	> 100 µM (inactive)	> 100 µM (inactive)		> 100 µM (inactive)	> 100 µM (inactive)	> 100 µM (inactive)		> 100 µM (inactive)
